Assay results as given in PubChem BioAssay AID504628 (Vanderbilt High Throughput Screening Facility, 2011).

Biological target: Voltage-dependent T-type calcium channel subunit alpha-1H (Homo sapiens) (UniProt O95180)
Assay: electrophysiology of T-type channel inhibitors – HEK293 cells, whole-cell recording, orthogonal assay for T-type calcium channel inhibitor project, late-stage follow-up (AID 504628)
Conditions: HEK293-Cav3.2 whole-cell patch clamp, Ba2+ current; at 1 µM

Chain of Voltage-dependent T-type calcium channel subunit alpha-1H (Homo sapiens) (O95180 whole entry, looked up): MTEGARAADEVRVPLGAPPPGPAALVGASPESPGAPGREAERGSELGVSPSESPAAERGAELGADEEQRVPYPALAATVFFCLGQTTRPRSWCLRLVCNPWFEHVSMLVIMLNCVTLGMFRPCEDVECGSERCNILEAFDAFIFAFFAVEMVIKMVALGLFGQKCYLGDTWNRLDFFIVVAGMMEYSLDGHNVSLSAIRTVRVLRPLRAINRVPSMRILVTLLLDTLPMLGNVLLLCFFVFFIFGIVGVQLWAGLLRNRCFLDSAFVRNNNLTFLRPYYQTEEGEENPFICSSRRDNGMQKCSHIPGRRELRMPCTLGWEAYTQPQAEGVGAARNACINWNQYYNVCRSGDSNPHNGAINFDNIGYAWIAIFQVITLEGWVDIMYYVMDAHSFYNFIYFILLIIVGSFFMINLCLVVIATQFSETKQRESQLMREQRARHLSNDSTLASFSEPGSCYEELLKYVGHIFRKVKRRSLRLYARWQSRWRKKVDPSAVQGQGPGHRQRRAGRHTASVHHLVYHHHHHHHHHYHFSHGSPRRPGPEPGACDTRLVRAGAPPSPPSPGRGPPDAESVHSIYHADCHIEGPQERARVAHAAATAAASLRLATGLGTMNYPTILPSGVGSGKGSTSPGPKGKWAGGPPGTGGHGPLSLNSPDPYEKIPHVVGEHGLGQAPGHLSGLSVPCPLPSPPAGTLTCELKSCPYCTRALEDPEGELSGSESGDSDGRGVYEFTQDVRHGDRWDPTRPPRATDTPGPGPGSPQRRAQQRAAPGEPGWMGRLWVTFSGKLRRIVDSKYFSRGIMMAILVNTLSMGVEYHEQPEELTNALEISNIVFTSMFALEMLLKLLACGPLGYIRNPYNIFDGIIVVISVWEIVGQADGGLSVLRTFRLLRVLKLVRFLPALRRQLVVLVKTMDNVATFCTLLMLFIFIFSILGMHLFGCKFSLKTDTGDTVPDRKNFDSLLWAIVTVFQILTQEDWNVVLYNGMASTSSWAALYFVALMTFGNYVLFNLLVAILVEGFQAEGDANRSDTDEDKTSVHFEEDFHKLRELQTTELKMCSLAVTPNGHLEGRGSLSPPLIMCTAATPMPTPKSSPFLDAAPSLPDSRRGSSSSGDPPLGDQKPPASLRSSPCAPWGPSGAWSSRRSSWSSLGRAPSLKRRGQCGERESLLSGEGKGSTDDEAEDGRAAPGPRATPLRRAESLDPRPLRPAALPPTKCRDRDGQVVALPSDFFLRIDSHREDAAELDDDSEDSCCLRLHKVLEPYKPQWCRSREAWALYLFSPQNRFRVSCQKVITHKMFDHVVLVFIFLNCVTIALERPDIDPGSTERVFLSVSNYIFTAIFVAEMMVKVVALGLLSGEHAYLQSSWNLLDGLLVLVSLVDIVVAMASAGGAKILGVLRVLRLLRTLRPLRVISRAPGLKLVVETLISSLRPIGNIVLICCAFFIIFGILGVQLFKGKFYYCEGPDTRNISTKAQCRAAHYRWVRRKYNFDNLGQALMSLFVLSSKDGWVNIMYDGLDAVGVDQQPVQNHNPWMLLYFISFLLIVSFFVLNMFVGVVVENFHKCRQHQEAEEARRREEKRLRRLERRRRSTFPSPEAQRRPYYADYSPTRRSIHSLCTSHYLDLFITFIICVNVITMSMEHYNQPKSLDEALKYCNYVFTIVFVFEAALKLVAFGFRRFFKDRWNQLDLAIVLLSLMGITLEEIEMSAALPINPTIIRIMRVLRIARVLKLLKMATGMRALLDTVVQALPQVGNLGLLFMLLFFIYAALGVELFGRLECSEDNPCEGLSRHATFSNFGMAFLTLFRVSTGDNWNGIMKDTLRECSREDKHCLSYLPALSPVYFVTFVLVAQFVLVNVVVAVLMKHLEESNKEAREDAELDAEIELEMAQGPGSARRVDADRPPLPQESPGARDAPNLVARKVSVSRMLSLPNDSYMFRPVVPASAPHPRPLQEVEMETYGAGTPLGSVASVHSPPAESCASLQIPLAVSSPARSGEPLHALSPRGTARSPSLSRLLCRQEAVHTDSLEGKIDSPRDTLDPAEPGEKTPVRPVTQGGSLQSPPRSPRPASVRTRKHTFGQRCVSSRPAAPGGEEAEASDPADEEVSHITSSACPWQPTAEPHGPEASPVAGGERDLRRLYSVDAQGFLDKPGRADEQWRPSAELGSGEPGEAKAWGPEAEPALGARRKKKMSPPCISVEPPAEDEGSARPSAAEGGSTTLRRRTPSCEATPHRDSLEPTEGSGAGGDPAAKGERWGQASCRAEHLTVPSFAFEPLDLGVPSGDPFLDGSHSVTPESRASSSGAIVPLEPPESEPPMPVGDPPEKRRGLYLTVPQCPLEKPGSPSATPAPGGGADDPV

current: -1010 pA
Structure (SMILES): CC(C)(C)CCN1C[C@@H]2C(CNC(=O)c3cc(Cl)cc(Cl)c3)[C@@H]2C1 (stereo partly specified)
